These results are taken from patent US11999720B2, “Pyrazolylacylpyrazoline compounds and method for treating pain” (THE TRUSTEES OF INDIANA UNIVERSITY, priority 2018, dated 2024).

For one series, the target named is T1, CaVα1CaVβ3 interaction (Rattus norvegicus, UniProt P54287).
T1 construct: made in house; host or cells: E. coli BL21(DE3)
Nature of the series: fluorescence polarization assay, inhibition constant. Conditions: for Ki: fluorescence polarization assay. The class given is binding. The protocol:
The plasmid of pET28a-CaV2.2β3 subunit was transformed into competent E. Coli BL21(DE3) strain. Culture was grown in LB medium at 37° C. to an OD600 of approximately 0.6 and then induced with 0.5 mM IPTG at 16° C. for 16 h. Cells were collected by centrifugation and lysed by microfluidizer in lysis buffer (phosphate buffer, pH 7.6, 2 mM DTT). The His-CaVβ3 protein was purified at 4° C. using Ni-IMAC chromatography (His-Trap HP, GE Healthcare) and eluted with 500 mM imidazole in lysis buffer with a gradient method. After the fractions consisted of His-CaVβ3 was combined and concentrated, the protein was further purified using size exclusion chromatography (Superdex 200 pg, GE Healthcare) in PBS with 2 mM DTT.
Compound 6 forms a salt bridge interaction with Arg-307 through a benzoic acid moiety. […] Arg-307 was mutated to alanine.
Background: Fluorescence polarisation rises when a labelled molecule tumbles more slowly, as on binding a larger partner.

Series [1] relates to T2, CaV2.2 channels in HEK-CaV2.2 cells (Rattus norvegicus).
T2 construct: expressed in transfected cells
T2 sequence (P54287 whole entry): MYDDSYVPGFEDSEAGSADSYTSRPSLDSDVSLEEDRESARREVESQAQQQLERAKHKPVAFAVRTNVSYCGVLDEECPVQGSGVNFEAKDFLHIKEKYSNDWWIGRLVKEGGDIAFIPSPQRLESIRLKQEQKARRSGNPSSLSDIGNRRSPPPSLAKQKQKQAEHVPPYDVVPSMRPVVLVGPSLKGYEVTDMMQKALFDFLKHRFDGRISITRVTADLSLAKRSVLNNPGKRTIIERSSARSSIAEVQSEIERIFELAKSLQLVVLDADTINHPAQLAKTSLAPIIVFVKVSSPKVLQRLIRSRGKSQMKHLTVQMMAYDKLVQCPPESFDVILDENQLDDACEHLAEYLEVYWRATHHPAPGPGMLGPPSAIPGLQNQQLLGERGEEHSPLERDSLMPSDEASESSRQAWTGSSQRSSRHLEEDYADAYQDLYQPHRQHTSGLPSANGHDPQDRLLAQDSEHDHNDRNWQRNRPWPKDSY
As to the kind of experiment: whole cell patch-clamp, CaV2.2 currents in HEK-CaV2.2 cells. It counts as cell-based. The protocol: The G-V curves are shown.
HEK-CaV2.2 cells were pretreated with various concentrations of compound 14 for 48 hours. CaV2.2 currents were acquired during 20-ms depolarizing pulses, and the current densities were calculated as a ratio of the peak current amplitude and each cell capacitance (0.1 μM, n=6; 1 μM, n=7; 10 μM, n=8; 50 μM, n=12). The line is the fit of the data to the four-parameter logistic function.
EK-CaV2.2 cells were pretreated with the indicated compounds for 48 hours. *** corresponds to […].
FIGS. 8 and 9 show the effects of 2 and 14 on the voltage dependence of activation of CaV2.2 channels in HEK-CaV2.2 cells pretreated with the vehicle or the indicated compounds for 48 hours. […] The gray vertical lines are the error bars (S.E.M.).
FIGS. 10 and 11 show acute effects of DMSO and 14 on the voltage dependence of activation of CaV2.2 channels in HEK-CaV2.2 cells. […] The gray vertical lines are the error bars (S.E.M.). “ns”—stands for not significant.
The whole cell patch-clamp technique was used to record CaV2.2 currents in HEK-CaV2.2 cells and rat DRG neurons. HEK293 cells that stably expressed rat N-type CaV2.2α1B, rat CaVβ3, and rat […] were utilized. Cells were grown in Dulbecco's modified Eagle's medium (DMEM) supplemented with 10% FBS, 50 units penicillin, 50 μg/ml streptomycin, 5 μg/ml blasticidin, 5 μg/ml hydromycin and 25 μg/ml zeozin at 37° C. in a humidified atmosphere of 95% air and 5% CO2. For patch clamp experiments, HEK-CaV2.2 cells were plated on glass coverslips and were cultured for 24-48 h. All animal procedures were performed in accordance to the NIH guide and were approved by the Indiana University School of Medicine Institutional Animal Care and Use Committee. Young adult Sprague Dawley rats were anesthetized (3% isoflurane) and then decapitated. The spinal column was removed, cut open, and dorsal root ganglia were harvested from the Lumbar L4-L6 vertebral levels. The ganglia were incubated in DMEM containing collagenase (1 mg/ml, Worthington: LS04194) and protease (1 mg/ml, Worthington: LS02104) for 30-60 minutes, and DRG neurons were dissociated by triturating in DMEM supplemented with 10% FBS. The isolated DRG neurons were plated on glass coverslips coated with growth factor reduced Matrigel (Thermo Fisher Scientific, Waltham, MA) and were cultured in Eagle's minimum essential medium (Invitrogen, CA) supplemented with 0.2% BSA and 20 ng/ml NGF-2.5S (BD Biosciences, Bedford, MA) at 37° C. in a water-jacketed 5% CO2 incubator overnight for the patch-clamp experiments.
(In patch-clamp work, channel activity is measured electrically.)

The test system of series [2] is tibial nerve injury (TNI) model of neuropathic pain. Nature of the series: tibial nerve injury (TNI) model of neuropathic pain, von Frey withdrawal threshold. It counts as in vivo, rat. The protocol: Pathogen-free, adult, female Sprague Dawley (weight at testing 150-200 g; Harlan-Sprague-Dawley, Indianapolis, IN) were housed in a climate-controlled room on a 12-hour light/dark cycle and were allowed to have food and water ad libitum. All procedures were approved by the Indiana University Animal Care and Use Committee and conformed to the guidelines of the National Institutes of Health (publication no. 80-23, 1966) for the use of laboratory animals. All behavioral experiments were conducted by experimenters blinded to the treatment conditions and compound identity. The experiments were replicated a minimum of 2 times with independent cohorts of animals.
For in vivo studies, the inventive compounds were freshly prepared saline (0.9%) on the day of the experiment. Morphine sulfate salt (Sigma-Aldrich, St. Louis, MO) was freshly prepared on the day of the experiment in saline. […]
The inventive compounds were assessed with the tibial nerve injury (TNI) model of neuropathic pain 28 days after surgery. Using isoflurane anesthesia (4% induction and 2% maintenance), the right sciatic nerve was isolated under aseptic surgical conditions by blunt dissection of the femoral biceps muscle and the tibial nerve was tightly ligated with 5-0 silk and transected distal to the ligation. Additional 2 to 3 mm of distal nerve stump was removed to prevent reinnervation by the proximal nerve. The overlying muscle and skin was then sutured in 2 separate layers. Sham-injured animals were subjected to all preceding procedures with the exception of ligation and transection. All animals were returned to the housing facility and allowed to survive for 28 d. Mechanical stimuli were applied with 7 filaments, each differing in the bending force delivered (10, 20, 40, 60, 80, 100, and 120 mN), and fitted with a flat tip and fixed diameter of 0.2 mm. The filaments were tested in the order of ascending force, with each filament delivered for 1 second. Withdrawal threshold was determined by sequentially increasing and analyzed with Hill equation was fitted to the function (Origin version 6.0; Microcal Software) relating the percentage of indentations eliciting a withdrawal to the force of indentation.

Series [3] can be described thus: pharmacokinetics, plasma concentrations by LC-MS/MS after IV and PO administration. The class given is in vivo, Kunming mice. Conditions: Kunming, mouse; for half-life: read-out: elimination half-life (converted); for Cmax: read-out: Cmax peak plasma concentration. The method, then: Plasma concentrations at various time points were determined using liquid chromatography tandem mass spectroscopy (LC-MS/MS). For intravenous (IV) administration, compound 14 was formulated as a solution at a final dose of 1 mg/kg.
For oral gavage (PO) administration, compound 14 was formulated as a solution at a final dose of 10 mg/kg. Plasma concentrations at various time points were determined using LC-MS/MS.
PK profiles of compound 14 after intravenous and oral administration was performed in Kunming mice. Plasma concentrations were determined by liquid chromatography tandem mass spectroscopy. Summary of PK properties and plasma concentration measured 1 hour after intravenous or oral administration of 1 or 10 mg/kg compound 14.

“Also recorded” adds a separate entry of the source. Where two headings read alike, the source gives them in different places.

T1 sequence (P54287 whole entry): as above

The Ki is a dissociation constant, usually derived from enzyme kinetics or from competition with a known ligand. The low end stands for a stronger hold on the target, the high end for a looser hold on the target. At CaVα1CaVβ3 interaction, `COc1ccc(C2=NN(c3cccc(C(=O)O)c3)C(c3cn(-c4ccccc4)nc3-c3ccc(C)cc3)C2)cc1` (centres unmarked) [Compound 11, 3-(5-(4-methoxyphenyl)-1′-phenyl-3′-(p-tolyl)-3,4-dihydro-1′H,2H-[3,4′-bipyrazol]-2-yl)benzoic acid] showed a Ki of 3.9 ± 0.9 µM.

In turn, `COc1ccc(C2=NN(C(=O)c3cccc(C(=O)O)c3)C(c3cn(-c4cccnc4)nc3-c3ccc(C)cc3)C2)cc1` (centres unmarked) [Compound 12, 3-(5-(4-methoxyphenyl)-1′-(pyridin-3-yl)-3′-(p-tolyl)-3,4-dihydro-1′H,2H-[3,4′-bipyrazole]-2-carbonyl)benzoic acid] returned a Ki at CaVα1CaVβ3 interaction of 5 ± 1.9 µM.

`COC(=O)c1cccc(C(=O)N2N=C(c3ccc(OC)cc3)CC2c2cn(-c3ccccc3)nc2-c2ccc(C)cc2)c1` (centres unmarked) [Compound 7, methyl 3-(5-(4-methoxyphenyl)-1′-phenyl-3′-(p-tolyl)-3,4-dihydro-1′H,2H-[3,4′-bipyrazole]-2-carbonyl)benzoate]: the “inhibition of the CaVα1CaVβ3 interaction” value against CaVα1CaVβ3 interaction (removal of the charge of the benzoic acid moiety) was “complete loss of inhibition”.

Compound `COc1ccc(C2=NN(C(=O)CCC(=O)O)C(c3cn(-c4ccccc4)nc3-c3ccc(C)cc3)C2)cc1` (centres unmarked) [Compound 1] returned a Ki on CaVα1CaVβ3 interaction of 6.7 ± 0.3 µM.

Compound `Cc1ccc(-c2nn(-c3ccccc3)cc2C2CC(c3ccc(-c4ccccn4)cc3)=NN2C(=O)CCC(=O)O)cc1` (centres unmarked) [Compound 4, 4-oxo-4-(1′-phenyl-5-(4-(pyridin-2-yl)phenyl)-3′-(p-tolyl)-3,4-dihydro-1′H,2H-[3,4′-bipyrazol]-2-yl)butanoic acid] had a Ki at CaVα1CaVβ3 interaction of 2.2 ± 0.3 µM.

A word on the IC50: it is the concentration that gives 50% inhibition. In general, half-life refers to the time needed for the level to fall by half in the phase considered. By AUC(0-t) is commonly meant the area under the concentration-time curve up to a stated or last time point. Read a high AUC(0-t) as high exposure. In general, Tmax refers to the time at which the peak concentration occurs. As for `COc1ccc(C2=NN(C(=O)c3cccc(-c4nnn[nH]4)c3)C(c3cn(-c4ccccc4)nc3-c3ccc(C)cc3)C2)cc1` (centres unmarked) [Compound 14, (3-(1H-tetrazol-5-yl)phenyl)(5-(4-methoxyphenyl)-1′-phenyl-3′-(p-tolyl)-3,4-dihydro-1′H,2H-[3,4′-bipyrazol]-2-yl)methanone], the “steady-state inactivation V0.5, inact” value in series [1] (50 μM, pretreated 48 hours) is −52.9±1.3 mV. The half-maximal inhibitory concentration (IC50) in series [1] (pretreated 48 hours, current densities, four-parameter logistic fit, read-out: apparent IC50 for inhibition of CaV2.2 currents) was 31 µM. The “mean half-activation potential V0.5, act” value in series [1] (pretreated 48 hours, DMSO 8.7±1.1) amounted to 16.5±1.1 mV. Also, on CaVα1CaVβ3 interaction, the affinity corresponds to a Ki of 2 ± 0.2 µM. Also, in series [2] (0.1 mg/kg single bolus, 1 and 24 h post-dosing, 4 weeks after TNI), the “reversal of mechanical hypersensitivity (PWT)” value was “significantly reversed mechanical hypersensitivity at both 1 and 24 h post-dosing; also recorded: significantly increased PWTs at both 1 and 24 hours post-injection”. The half-life in series [3] (IV, 1 mg/kg) was 17.4 min. Besides, in series [3] (iv, 1 mg/kg), the AUC(0-t) was determined as 58 ng·h/mL, the Tmax came to 4.98 min and the Cmax was 181 ng/mL. In addition, in series [3] (oral gavage (PO), 10 mg/kg), the AUC(0-t) came to 636 ng·h/mL, the Tmax is 60 min, the Cmax amounted to 165 ng/mL and the half-life was 119 min.

Take `COc1ccc(C2=NN(C(=O)c3cccc(C(=O)O)c3)C(c3cn(-c4ccccc4)nc3-c3ccc(-c4ncc[nH]4)cc3)C2)cc1` (centres unmarked) [Compound 15, 3-(3′-(4-(1H-imidazol-2-yl)phenyl)-5-(4-methoxyphenyl)-1′-phenyl-3,4-dihydro-1′H,2H-[3,4′-bipyrazole]-2-carbonyl)benzoic acid]: the “half-activation voltage V0.5, act after acute treatment” value in series [1] (50 μM, 5 min incubation, before 6.4±1.9) came to 11.4±1.7 mV. For the same compound, the “density of CaV2.2 currents” value in series [1] (50 μM, pretreated 48 hours, depolarizing pulses to 0 mV from holding potential −80 mV, DMSO −74.8±7.0) is −11.1±2.4 pA/pF.

`COc1ccc(C2=NN(C(=O)c3cccc(C(=O)O)c3)C(c3cn(-c4ccc(OC)cc4)nc3-c3ccc(C)cc3)C2)cc1` (centres unmarked) [Compound 10, 3-(1′,5-bis(4-methoxyphenyl)-3′-(p-tolyl)-3,4-dihydro-1′H,2H-[3,4′-bipyrazole]-2-carbonyl)benzoic acid] showed a Ki on CaVα1CaVβ3 interaction of 3.7 ± 0.2 µM.

Regarding `COc1ccc(C2=NN(C(=O)c3cccc(C(=O)O)c3)C(c3cn(-c4ccccc4)nc3-c3ccc(Cl)cc3)C2)cc1` (centres unmarked) [Compound 8, 3-(3′-(4-chlorophenyl)-5-(4-methoxyphenyl)-1′-phenyl-3,4-dihydro-1′H,2H-[3,4′-bipyrazole]-2-carbonyl)benzoic acid], at CaVα1CaVβ3 interaction, the Ki came out at 1.2 ± 0.1 µM.

Turning to `CN1CC[C@]23c4c5ccc(O)c4O[C@H]2[C@@H](O)C=C[C@H]3[C@H]1C5.O=S(=O)(O)O` [morphine, Morphine sulfate salt, reference compound], in series [2] (5 mg/kg systemic, 28 days after TNI), the “withdrawal threshold to von Frey stimulation” value is reported as 32±2.6 mN.
